Measurements taken from patent US9809623B2, “α4β7 peptide monomer and dimer antagonists” (Protagonist Therapeutics, Inc., priority 2014, dated 2017).
Numbered stars: 1 amine (or outer) side, 2 acyl side, 3 side chain; on linkers, the order of the positions; unused ones are H or OH. Bridge positions count the residues as written; N and C are the ends. Square brackets hold non-standard residues; d marks the D form. Peptide text beside a SMILES is read from it. I, II: the chains in the order shown. Phe(4-tBu) = CC(C)(C)c1ccc(C[C@H](N)C(=O)O)cc1; 2Nal = N[C@@H](Cc1ccc2ccccc2c1)C(=O)O; Diglycolyl = O=C(COCC(=O)[*:2])[*:1]; NMeR = CN[C@@H](CCCNC(=N)N)C(=O)O; Tic = O=C(O)[C@@H]1Cc2ccccc2CN1; β3hE = N[C@@H](CCC(=O)O)CC(=O)O; Pen = CC(C)(S)[C@H](N)C(=O)O

Key:
α4β7 [1] = target: T1, α4β7 (Mus musculus, UniProt P26011+Q00651); test: α4β7 Cell Adhesion Assay (Mouse), TK1 cells; type: cell-based; settings: Table 3-B, Potency (α4β7); range classes; read-out: α4β7 cell(MU) IC50
T1 construct: host or cells: TK1 mouse T cells
T1 sequence (Q00651 34-1039 limits assumed): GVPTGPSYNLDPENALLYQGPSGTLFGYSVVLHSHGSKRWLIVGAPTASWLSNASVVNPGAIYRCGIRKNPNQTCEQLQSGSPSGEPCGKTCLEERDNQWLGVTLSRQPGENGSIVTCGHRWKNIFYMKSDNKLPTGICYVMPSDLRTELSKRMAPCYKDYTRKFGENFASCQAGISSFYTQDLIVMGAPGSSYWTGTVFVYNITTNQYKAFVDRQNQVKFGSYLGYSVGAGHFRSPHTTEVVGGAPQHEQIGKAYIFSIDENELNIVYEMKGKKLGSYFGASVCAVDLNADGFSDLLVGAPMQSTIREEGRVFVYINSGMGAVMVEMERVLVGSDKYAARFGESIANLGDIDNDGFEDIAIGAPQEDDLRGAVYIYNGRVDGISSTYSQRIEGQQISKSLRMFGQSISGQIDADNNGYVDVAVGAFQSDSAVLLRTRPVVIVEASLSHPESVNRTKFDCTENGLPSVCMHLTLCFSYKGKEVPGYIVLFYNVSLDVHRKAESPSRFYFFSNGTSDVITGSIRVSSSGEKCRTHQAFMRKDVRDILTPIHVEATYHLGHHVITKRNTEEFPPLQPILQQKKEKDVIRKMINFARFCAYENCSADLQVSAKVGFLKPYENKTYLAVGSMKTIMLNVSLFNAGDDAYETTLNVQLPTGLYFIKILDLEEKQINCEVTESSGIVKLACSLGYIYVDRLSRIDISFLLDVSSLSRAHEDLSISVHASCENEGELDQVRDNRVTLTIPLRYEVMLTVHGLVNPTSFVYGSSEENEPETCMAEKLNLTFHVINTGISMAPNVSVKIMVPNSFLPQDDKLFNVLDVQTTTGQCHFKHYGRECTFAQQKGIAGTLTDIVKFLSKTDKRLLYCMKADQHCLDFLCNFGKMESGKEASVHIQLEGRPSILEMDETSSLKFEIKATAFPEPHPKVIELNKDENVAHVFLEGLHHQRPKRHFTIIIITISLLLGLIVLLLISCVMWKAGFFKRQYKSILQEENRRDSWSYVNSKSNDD
T1 sequence (P26011 20-806): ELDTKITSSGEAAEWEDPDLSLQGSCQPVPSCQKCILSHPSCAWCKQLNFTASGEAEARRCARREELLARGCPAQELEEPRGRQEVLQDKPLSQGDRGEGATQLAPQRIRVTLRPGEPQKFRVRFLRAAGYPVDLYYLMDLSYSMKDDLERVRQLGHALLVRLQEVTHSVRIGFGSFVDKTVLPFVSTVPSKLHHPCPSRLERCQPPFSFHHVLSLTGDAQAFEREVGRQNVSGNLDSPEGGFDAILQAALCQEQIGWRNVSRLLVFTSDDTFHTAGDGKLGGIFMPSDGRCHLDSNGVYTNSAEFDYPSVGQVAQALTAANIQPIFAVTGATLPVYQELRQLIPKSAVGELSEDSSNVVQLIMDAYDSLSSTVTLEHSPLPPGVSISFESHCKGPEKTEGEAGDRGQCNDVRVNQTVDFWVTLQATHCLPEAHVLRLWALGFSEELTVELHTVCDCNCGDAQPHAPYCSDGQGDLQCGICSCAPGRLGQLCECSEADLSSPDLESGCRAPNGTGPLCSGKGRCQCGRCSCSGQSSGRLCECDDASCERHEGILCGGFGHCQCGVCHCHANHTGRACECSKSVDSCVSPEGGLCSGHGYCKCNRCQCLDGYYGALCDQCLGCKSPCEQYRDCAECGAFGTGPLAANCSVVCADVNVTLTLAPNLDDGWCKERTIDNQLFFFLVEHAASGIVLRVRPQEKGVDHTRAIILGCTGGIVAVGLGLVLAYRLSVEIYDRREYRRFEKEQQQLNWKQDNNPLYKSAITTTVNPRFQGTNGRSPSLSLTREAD
Procedure: TK1 cells (ATCC # ATCC-CRL-2396) were cultured in RPMI 1640 with 2 mM L-glutamine adjusted to contain 1.5 g/L sodium bicarbonate, 4.5 g/L glucose, 10 mM HEPES, and 1.0 mM sodium pyruvate (ATCC#30-2001) and supplemented with 0.1 mM non-essential amino acids, (ATCC #30-2116) 0.05 mM 2-mercaptoethanol (Invitrogen #21985) and 10% serum (Fetal Bovine Serum, Invitrogen #16140-071), and Penicillin-Streptomycin (Invitrogen #15140-122) at 100 units of penicillin and 100 μg of streptomycin per ml. The cells were washed two times in DMEM medium (ATCC #30-2002) supplemented with 0.1% BSA, 10 mM HEPES pH 7 and 1 mM MnCl2. The cells were re-suspended in supplemented DMEM medium at a density of 4×10^6 cells/ml.
A Nunc MaxiSorp plate was coated with Recombinant human MAdCAM-1 Fc Chimera (R&D #6065-MC) at 200 ng per well in 100 μl per well in 1×PBS and incubated at 4° C. overnight. The solution was then removed by shaking, blocked with 250 ul per well PBS containing 1% BSA, and incubated at 37° C. for 1 hr. The solution was removed by shaking. DATK 32 (anti-mouse α4β7) and peptides were diluted by serial dilution in a final volume of 50 ul per well (2× concentration). To each well, 50 ul of cells (200,000 cells) are added and the plate is incubated at 37° C., 5% CO2 for 30-45 min to allow cell adhesion. The plate was manually washed three times with supplemented DMEM, 100 ul per wash. After the final wash, 100 ul/well of supplemented DMEM and […] of MTT reagent (ATTC cat#30-1010K) was added to each well. Wells were incubated at 37° C. with 5% CO2 for 2-3 hrs until purple precipitate was visible. 100 μl of Detergent Reagent (ATTC cat#30-1010K) was added to each well. The plate was then wrapped with Para film to prevent evaporation, and left overnight at room temperature in the dark. The plate was shaken for 5 min and the absorbance at 570 nm was measured. To calculate the dose response, the absorbance value of control wells not containing cells was subtracted from each test well.

α4β7 [2] = target: T2, α4β7 (Homo sapiens, UniProt P13612+P26010); test: α4β7-MAdCAM Cell Adhesion Assay (RPMI 8866 human cells); type: cell-based; parameters: host or cells: RPMI 8866 human B lymphoblastoid cells; settings: Table 3-B, Potency (α4β7); range classes; read-out: α4β7 cell (Hu) IC50
Outline: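 Washed RPMI 8866 cells (200,000/well) in DMEM with 0.1% BSA, 10 mM HEPES pH 7, 1 mM MnCl2 adhered to rh MAdCAM-1/Fc-coated wells with serially diluted peptides, 30-45 min at 37 °C. After three washes, bound cells quantified by MTT, A570, cell-free background subtracted for dose response.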

α4β1 = target: T3, α4β1 (Homo sapiens, UniProt P05556+P13612, DEL729-798); test: α4β1-VCAM Competition ELISA; type: binding; settings: Table 3-B, Selectivity (α4β1); range classes; read-out: α4β1 ELISA IC50
T3 construct: purchased R&D Systems 5668-A4
T3 sequence (P13612 34-977 limits assumed, stated change not applied): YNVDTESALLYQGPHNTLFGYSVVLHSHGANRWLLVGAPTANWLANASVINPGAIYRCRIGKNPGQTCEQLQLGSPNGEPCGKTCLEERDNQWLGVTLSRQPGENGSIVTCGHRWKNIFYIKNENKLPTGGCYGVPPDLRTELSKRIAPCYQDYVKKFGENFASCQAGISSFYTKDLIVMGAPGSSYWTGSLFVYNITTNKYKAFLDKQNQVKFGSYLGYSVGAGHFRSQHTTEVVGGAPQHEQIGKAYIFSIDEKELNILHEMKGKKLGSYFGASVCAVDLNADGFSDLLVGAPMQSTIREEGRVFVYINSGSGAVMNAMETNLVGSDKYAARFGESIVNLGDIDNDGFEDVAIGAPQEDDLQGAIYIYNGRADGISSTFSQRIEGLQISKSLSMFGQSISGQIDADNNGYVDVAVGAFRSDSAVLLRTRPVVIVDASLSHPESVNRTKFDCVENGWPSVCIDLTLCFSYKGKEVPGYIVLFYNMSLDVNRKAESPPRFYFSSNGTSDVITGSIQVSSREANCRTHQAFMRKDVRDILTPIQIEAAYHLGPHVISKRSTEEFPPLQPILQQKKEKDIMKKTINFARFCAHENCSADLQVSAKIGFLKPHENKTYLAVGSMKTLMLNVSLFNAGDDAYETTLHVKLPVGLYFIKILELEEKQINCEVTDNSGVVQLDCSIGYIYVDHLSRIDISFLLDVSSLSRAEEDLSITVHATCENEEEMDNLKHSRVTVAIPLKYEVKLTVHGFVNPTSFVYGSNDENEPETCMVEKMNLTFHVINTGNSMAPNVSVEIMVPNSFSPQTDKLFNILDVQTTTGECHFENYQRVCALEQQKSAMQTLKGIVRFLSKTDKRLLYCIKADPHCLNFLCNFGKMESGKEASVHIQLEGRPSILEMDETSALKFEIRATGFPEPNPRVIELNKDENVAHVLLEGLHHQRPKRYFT
T3 sequence (P05556 21-728 limits assumed, stated change not applied): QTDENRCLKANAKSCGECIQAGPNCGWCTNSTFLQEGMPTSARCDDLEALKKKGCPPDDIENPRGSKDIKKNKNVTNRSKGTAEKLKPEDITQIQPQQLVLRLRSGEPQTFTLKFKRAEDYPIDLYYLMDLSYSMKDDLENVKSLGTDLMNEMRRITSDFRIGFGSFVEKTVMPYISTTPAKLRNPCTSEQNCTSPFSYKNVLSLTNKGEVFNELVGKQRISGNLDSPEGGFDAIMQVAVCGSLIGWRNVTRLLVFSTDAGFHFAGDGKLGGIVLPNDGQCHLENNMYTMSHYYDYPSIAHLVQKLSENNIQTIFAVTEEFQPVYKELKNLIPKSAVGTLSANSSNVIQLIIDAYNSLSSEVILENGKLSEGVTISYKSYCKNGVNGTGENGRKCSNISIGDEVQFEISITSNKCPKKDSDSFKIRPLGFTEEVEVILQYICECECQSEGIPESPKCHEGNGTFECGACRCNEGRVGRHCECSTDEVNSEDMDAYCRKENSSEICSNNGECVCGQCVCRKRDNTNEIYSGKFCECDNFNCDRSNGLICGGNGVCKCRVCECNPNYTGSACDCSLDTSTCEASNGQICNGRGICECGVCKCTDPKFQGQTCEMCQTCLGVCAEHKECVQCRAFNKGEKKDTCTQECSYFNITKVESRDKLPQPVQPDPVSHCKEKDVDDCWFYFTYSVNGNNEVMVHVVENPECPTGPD
Outline: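 Recombinant α4β1 (60 nM final) competed with serially diluted peptides (top final 100 μM) for VCAM-1 Fc coated at 400 ng/well, in Tris pH 7.6 with 1 mM MnCl2 or MgCl2, for 2 h at 37 °C. Bound integrin was detected with anti-CD49d 9F10 plus HRP anti-mouse IgG, using TMB read at 450 nm.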

α4β7 [3] = target: T2, α4β7; test: PBMC Memory T Cell Adhesion Assay, adhesion to MAdCAM-1; type: cell-based; settings: Table 3-B; range classes; read-out: PBMC IC50
Procedure: Fresh CD4+/CD45RO+ memory T cells were isolated from human peripheral blood mononuclear cell (PBMC) donors by Aragen Bioscience Inc. (Morgan Hill, Calif.). The assay plate was prepared using IgG Fc capture antibody (donkey anti human) immobilized at 500 ng/well in 50 mM sodium bicarbonate buffer, pH 9.5, ON, 4C onto a Greiner Fluotrac plate (100 ul per well). The plate was rinsed two time with Blocking Buffer (25 mM Tris HCl, pH7.5, 150 mM NaCl, 1.5% BSA, 0.05% Tween), and blocked with Blocking Buffer for 2 hours at 37 C or 5 hours at RT using 200 ul per well. The Blocking Buffer was removed and either MAdCAM-1 or VCAM-1 at 400 ng/well in Blocking Buffer was added and the plate incubated overnight at 4C (100 ul per well). The plate was washed two times with Blocking Buffer, and rinsed once with 200 ul Binding Media (DMEM phenol red free, 10 mM HEPES, 1×Na pyruvate, 1× Glutamine, and supplemented with 1 mM MnCl2 prior to use). To prepare cells, approximately 25 million CD4+/CD45RO+ memory T cells were counted by trypan blue exclusion using a haemocytometer to determine viability and cell count. The cells were transferred to a 50 ml conical tube, and centrifuged at 1200 rpm for 10 minute. The media was aspirated and the cell pellet resuspended in 15 ml Binding Media. The cells were centrifuged again and resuspended in the appropriate amount of Binding Media to be used for assays (50 ul of cells per well at 2× the final density). To each well, and equal volume (50 ul) of test compound was added and the plate was incubated for 1.5 hours at 37 C, 5% CO2. Each well was rinsed 3× with 150 ul per well of Binding Media. […] The plate was incubated at 37 C, 5% CO2, for 45 minutes. The plate was protected from light by using black adhesive seals. Fluorescence intensity was measured using a Molecular Devices Gemini EM Fluorescent Plate Reader (Ex 485/Em530, Bottom Read, Reading Sensitivity=20). IC50 curves are generated using Graph Pad Prism and the curves analyzed using analyzed using a non-linear regression (four parameters) algorithm. The log (concentration) versus RFU (Ex485/Em530) was plotted to determine IC50 values.

[4] = tested on: cell types in human whole blood; test: FACS binding specificity in human whole blood; type: cell-based; settings: 1 nM, 1 mM MnCl2
Procedure: To further evaluate the selectivity of Peptide X in human blood, the fluorescent dye Alexa 647 was conjugated to Peptide X at the same position used for attaching biotin. […] Heparinized human whole blood was supplemented with 1 mM MnCl2, and stained with the Peptide X-Alexa 647 conjugate or biotinylated vedolizumab for 1 hour at room temperature. The samples were fixed (red blood cells lysed) and washed. The vedolizumab samples were stained separately with streptavidin Alexa 647 for stain for 30 minutes at room temperature. FACS analysis was used to assess binding of the peptide or vedolizumab to a broad panel of cell types including NK cells, basophils, monocytes, eosinophils, neutrophils, CD4 naïve T cells, CD4 memory T cells, CD8 naïve T cells, CD8 memory T cells, and B cells. […] The binding specificity for vedolizmab shown in Table 7 is also very similar to that reported in the literature (Soler et al, JPET 330:864-875, 2009).

Row | Compound | IC50 (α4β7 [1]) | IC50 (α4β7 [2]) | IC50 (α4β1) | also measured
1 | CC(=O)N[C@@H]1C(=O)N(C)[C@@H](CCCNC(=N)N)C(=O)N[C@@H](CO)C(=O)N[C@@H](CC(=O)O)C(=O)N[C@@H]([C@@H](C)O)C(=O)N[C@@H](CC(C)C)C(=O)N[C@H](C(=O)N[C@@H](Cc2ccc3ccccc3c2)C(=O)N[C@@H](CCC(=O)O)CC(N)=O)C(C)(C)SSC1(C)C [compound 155] (Ac-[Pen][NMeR]SDTL[Pen][2Nal][β3hE]-NH2; disulfide 1-7) | 25 to 50 nM | 25 to 50 nM | 1000 to 10000 nM | 
2 | CC(=O)N[C@@H]1C(=O)N(C)[C@@H](CCCNC(=N)N)C(=O)N[C@@H](CO)C(=O)N[C@@H](CC(=O)O)C(=O)N[C@@H]([C@@H](C)O)C(=O)N[C@@H](CC(C)C)C(=O)N[C@H](C(=O)N[C@@H](Cc2c[nH]c3ccccc23)C(=O)N[C@@H](CCC(=O)O)CC(=O)O)C(C)(C)SSC1(C)C [compound 146] (Ac-[Pen][NMeR]SDTL[Pen]W[β3hE]-OH; disulfide 1-7) | 50 to 100 nM | 50 to 100 nM | 1000 to 10000 nM | 
3 | CC(=O)N[C@@H]1C(=O)N(C)[C@@H](CCCNC(=N)N)C(=O)N[C@@H](CO)C(=O)N[C@@H](CC(=O)O)C(=O)N[C@@H]([C@@H](C)O)C(=O)N[C@@H](CC(C)C)C(=O)N[C@H](C(=O)N2Cc3ccccc3C[C@H]2C(=O)N[C@@H](CCC(=O)O)CC(N)=O)C(C)(C)SSC1(C)C [compound 154] (Ac-[Pen][NMeR]SDTL[Pen][Tic][β3hE]-NH2; disulfide 1-7) | 1000 to 10000 nM | 100 to 500 nM | 1000 to 10000 nM | 
4 | CC(=O)N[C@@H]1C(=O)N(C)[C@@H](CCCNC(=N)N)C(=O)N[C@@H](CO)C(=O)N[C@@H](CC(=O)O)C(=O)N[C@@H]([C@@H](C)O)C(=O)N[C@@H](CC(C)C)C(=O)N[C@H](C(=O)N[C@@H](Cc2ccc(C(C)(C)C)cc2)C(=O)N[C@@H](CCC(=O)O)CC(=O)N[C@H](CCCCNC(=O)COCC(=O)NCCCC[C@@H](NC(=O)C[C@H](CCC(=O)O)NC(=O)[C@H](Cc2ccc(C(C)(C)C)cc2)NC(=O)[C@H]2NC(=O)[C@H](CC(C)C)NC(=O)[C@H]([C@@H](C)O)NC(=O)[C@H](CC(=O)O)NC(=O)[C@H](CO)NC(=O)[C@H](CCCNC(=N)N)N(C)C(=O)[C@@H](NC(C)=O)C(C)(C)SSC2(C)C)C(=O)O)C(=O)O)C(C)(C)SSC1(C)C [compound 168] (I: Ac-[Pen][NMeR]SDTL[Pen][Phe(4-tBu)][β3hE][dK]-OH / II: Ac-[Pen][NMeR]SDTL[Pen][Phe(4-tBu)][β3hE][dK]-OH; disulfide I:1-I:7, II:1-II:7; linker I:10-II:10 via Diglycolyl) |  | < 10 nM |  | IC50 (α4β7 [3]): < 10 nM
5 | CC(=O)N[C@@H]1C(=O)N(C)[C@@H](CCCNC(=N)N)C(=O)N[C@@H](CO)C(=O)N[C@@H](CC(=O)O)C(=O)N[C@@H]([C@@H](C)O)C(=O)N[C@@H](CC(C)C)C(=O)N[C@H](C(=O)N[C@@H](Cc2ccc(C(C)(C)C)cc2)C(=O)N[C@@H](CCC(=O)O)CC(=O)N[C@H](CCCCNC(=O)CN(CC(=O)NCCCC[C@@H](NC(=O)C[C@H](CCC(=O)O)NC(=O)[C@H](Cc2ccc(C(C)(C)C)cc2)NC(=O)[C@H]2NC(=O)[C@H](CC(C)C)NC(=O)[C@H]([C@@H](C)O)NC(=O)[C@H](CC(=O)O)NC(=O)[C@H](CO)NC(=O)[C@H](CCCNC(=N)N)N(C)C(=O)[C@@H](NC(C)=O)C(C)(C)SSC2(C)C)C(N)=O)C(=O)CCN)C(N)=O)C(C)(C)SSC1(C)C [compound 166] |  | < 10 nM |  | IC50 (α4β7 [3]): < 10 nM
6 | vedolizumab [reference compound] |  |  |  | Percent positive staining, Basophils [4]: 86%; Percent positive staining, CD4 memory T cells [4]: 22%; Percent positive staining, CD4 naïve T cells [4]: 55%; Percent positive staining, CD8 memory T cells [4]: 36%; Percent positive staining, CD8 naïve T cells [4]: 53%; Percent positive staining, CD19+ B cells [4]: 85%; Percent positive staining, Eosinophils [4]: 91%; Percent positive staining, Monocytes [4]: 7%; Percent positive staining, NK cells CD16+ 56+ [4]: 42%; Percent positive staining, Neutrophils [4]: 0.45%
7 | COC(=O)CC[C@H](NC(=O)[C@H](Cc1c[nH]c2ccccc12)NC(=O)[C@H]1NC(=O)[C@H](CC(C)C)NC(=O)[C@H]([C@@H](C)O)NC(=O)[C@H](CC(=O)O)NC(=O)[C@H](CO)NC(=O)[C@H](CCCNC(=N)N)N(C)C(=O)[C@@H](NC(C)=O)C(C)(C)SSC1(C)C)C(=O)N[C@H](CCCCNC(=O)COCC(=O)NCCCC[C@@H](NC(=O)[C@H](CCC(=O)OC)NC(=O)[C@H](Cc1c[nH]c2ccccc12)NC(=O)[C@H]1NC(=O)[C@H](CC(C)C)NC(=O)[C@H]([C@@H](C)O)NC(=O)[C@H](CC(=O)O)NC(=O)[C@H](CO)NC(=O)[C@H](CCCNC(=N)N)N(C)C(=O)[C@@H](NC(C)=O)C(C)(C)SSC1(C)C)C(N)=O)C(N)=O [compound 86] (I: Ac-[Pen][NMeR]SDTL[Pen]WE(OMe)[dK]-NH2 / II: Ac-[Pen][NMeR]SDTL[Pen]WE(OMe)[dK]-NH2; disulfide I:1-I:7, II:1-II:7; linker I:10-II:10 via Diglycolyl) | < 10 nM | < 10 nM |  | 
